Test results as given in patent US9394250B2, “Substituted pyrrolidines as factor xia inhibitors for the treatment thromboembolic diseases” (ONO PHARMACEUTICAL CO., LTD., priority 2012, dated 2016).
Structures can show the parent of a compound that is named as a salt.

Tests used:
Assay type in all cases: biochemical
human thrombin = human thrombin (Homo sapiens (Human), UniProt P00734); assay: Thrombin enzyme activity, chromogenic substrate S-2366; conditions: human thrombin 0.12 U/mL, 300 μM S-2366, pH7.4; read-out: In vitro Thrombin inhibitory activity IC50
Protocol: (§1) Inhibitory activities of compounds of the present invention against factor XIa, Xa, XIIa, IXa, VIIa, plasma kallikrein or thrombin were evaluated using appropriate purified proteases and synthetic substrates. The rate of hydrolysis of the chromogenic substrate by the relevant protease was continuously measured at 405 nm. Inhibitory activity against each enzyme was calculated as % inhibition using the equation described below. % Inhibition=[[(rate without compound)−(rate with compound)]/(rate without compound)]×100%. Each half maximal inhibitory concentration (IC50) value was determined by plotting the concentration of compound of the invention against the % inhibition. (1-1) Factor XIa Enzyme Activity
(§2) Human Factor Xa (American Diagnostica Inc.) and human thrombin (Sigma) activities were measured at the enzyme concentrations of 0.18 U/mL and 0.12 U/mL, respectively in the same buffer containing 150 mM NaCl, 2 mg/mL PEG6000, 50 mM Tris-HCl (pH7.4), except that the reactions were started with 300 μM S-2222 ([…], Chromogenix) and 300 μM S-2366, respectively.

Human Factor XIa = Human Factor XIa (Homo sapiens (Human), UniProt P03951); assay: Factor XIa enzyme activity, chromogenic substrate S-2366; conditions: purified human Factor XIa 0.1 U/mL, 300 μM S-2366, pH7.4; read-out: In vitro FXIa inhibitory activity IC50
Protocol: as §1
Human Factor XIa (Haematologic Technologies Inc.) activity was measured at an enzyme concentration of 0.1 U/mL in 150 mM NaCl, 5 mM KCl, 1 mg/mL PEG6000, 50 mM HEPES-NaOH (pH7.4) with 300 μM S-2366 (pyroGlu-Pro-Arg-pNA, Chromogenix).

Human Factor Xa = Human Factor Xa (Homo sapiens (Human), UniProt P00742); assay: Factor Xa enzyme activity, chromogenic substrate S-2222; conditions: human Factor Xa 0.18 U/mL, 300 μM S-2222, pH7.4; read-out: In vitro FXa inhibitory activity IC50
Protocol: as §1, §2

Chain of Human Factor XIa (P03951 388-625): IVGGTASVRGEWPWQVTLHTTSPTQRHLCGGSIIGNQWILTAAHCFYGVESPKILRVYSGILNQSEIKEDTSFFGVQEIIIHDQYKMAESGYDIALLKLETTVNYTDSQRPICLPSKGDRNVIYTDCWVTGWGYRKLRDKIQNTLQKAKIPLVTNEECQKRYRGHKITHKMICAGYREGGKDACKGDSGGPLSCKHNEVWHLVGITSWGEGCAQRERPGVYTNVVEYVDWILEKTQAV
Chain of Human Factor XIa (P03951 19-387 partner): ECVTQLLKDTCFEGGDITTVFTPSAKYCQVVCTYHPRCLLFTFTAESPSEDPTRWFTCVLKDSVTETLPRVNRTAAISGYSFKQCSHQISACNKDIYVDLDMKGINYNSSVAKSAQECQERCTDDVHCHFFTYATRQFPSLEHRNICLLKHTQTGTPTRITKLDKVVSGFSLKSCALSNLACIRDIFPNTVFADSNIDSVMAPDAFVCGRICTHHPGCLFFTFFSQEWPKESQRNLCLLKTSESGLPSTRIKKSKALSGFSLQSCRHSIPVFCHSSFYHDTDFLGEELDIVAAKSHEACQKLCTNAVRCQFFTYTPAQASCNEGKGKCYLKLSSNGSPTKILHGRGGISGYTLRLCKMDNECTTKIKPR
Chain of Human Factor Xa (P00742 235-488): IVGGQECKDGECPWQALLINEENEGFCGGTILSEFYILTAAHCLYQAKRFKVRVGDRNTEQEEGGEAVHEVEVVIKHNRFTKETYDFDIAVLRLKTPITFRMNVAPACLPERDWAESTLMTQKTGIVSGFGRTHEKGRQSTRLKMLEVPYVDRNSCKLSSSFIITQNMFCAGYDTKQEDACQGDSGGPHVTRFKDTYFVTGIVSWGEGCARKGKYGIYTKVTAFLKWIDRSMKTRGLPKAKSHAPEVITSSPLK
Chain of Human Factor Xa (P00742 41-179 partner): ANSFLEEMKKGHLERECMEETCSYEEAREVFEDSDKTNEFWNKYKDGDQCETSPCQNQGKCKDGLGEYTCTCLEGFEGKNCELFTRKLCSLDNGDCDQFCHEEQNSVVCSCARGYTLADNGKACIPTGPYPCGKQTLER

| Compound | IC50 (human thrombin) | IC50 (Human Factor XIa) | IC50 (Human Factor Xa) |
| --- | --- | --- | --- |
| Cn1cc(Cl)c2c(F)c(C(=O)N3C[C@@H](C4CCN(S(C)(=O)=O)CC4)C[C@H]3C(=O)Nc3ccc(C(=O)O)cc3)ccc21 [Example 93, 4-[({(2S,4R)-1-[(3-chloro-4-fluoro-1-methyl-1H-indol-5-yl)carbonyl]-4-[1-(methylsulfonyl)-4-piperidinyl]-2-pyrrolidinyl}carbonyl)amino]benzoic acid] | > 100 µM | 0.018 µM | > 100 µM |
| COC(=O)Nc1ccc(-c2cnc([C@@H]3C[C@H](C4CCN(S(C)(=O)=O)CC4)CN3C(=O)C3CCN(C(=N)N)CC3)[nH]2)cc1 [Example 69, methyl [4-(2-{(2S,4R)-1-[(1-carbamimidoyl-4-piperidinyl)carbonyl]-4-[1-(methylsulfonyl)-4-piperidinyl]-2-pyrrolidinyl}-1H-imidazol-5-yl)phenyl]carbamate dihydrochloride] | > 100 µM | 0.0074 µM | > 100 µM |
| CS(=O)(=O)N1CCN([C@H]2C[C@@H](C(=O)Nc3ccc(C(=O)O)cc3)N(C(=O)C3CCN(C(=N)N)CC3)C2)CC1 [Example 9, 4-[({(2S,4S)-1-[(1-carbamimidoyl-4-piperidinyl)carbonyl]-4-[4-(methylsulfonyl)-1-piperazinyl]-2-pyrrolidinyl}carbonyl)amino]benzoic acid bis(trifluoroacetate)] | > 100 µM | 0.017 µM | > 100 µM |
| CS(=O)(=O)N1CCC([C@H]2C[C@@H](C(=O)Nc3ccc(C(=O)O)cc3)N(C(=O)c3ccc(C(=N)N)cc3)C2)CC1 [Example 111, 4-[({(2S,4R)-1-(4-carbamimidoylbenzoyl-4-[1-(methylsulfonyl)-4-piperidinyl]-2-pyrrolidinyl}carbonyl)amino]benzoic acid hydrochloride] | > 100 µM | 0.0085 µM |  |
| CS(=O)(=O)N1CCN([C@H]2C[C@@H](C(=O)Nc3ccc(C(=O)O)cc3)N(C(=O)c3ccc(C(=N)N)cc3)C2)CC1 [Example 20, 4-[({(2S,4S)-1-(4-carbamimidoylbenzoyl)-4-[4-(methylsulfonyl)-1-piperazinyl]-2-pyrrolidinyl}carbonyl)amino]benzoic acid bis(trifluoroacetate)] | > 100 µM | 0.0032 µM | > 100 µM |
| O=C(Nc1ccc2nn[nH]c2c1)[C@@H]1C[C@H](N2CCOCC2)CN1C(=O)/C=C/c1cc(Cl)ccc1-n1cnnn1 [Example 43, (2S,4S)—N-(1H-benzotriazol-6-yl)-1-{(2E)-3-[5-chloro-2-(1H-tetrazol-1-yl)phenyl]-2-propenoyl}-4-(4-morpholinyl)-2-pyrrolidinecarboxamide trifluoroacetate] | > 100 µM | 0.011 µM | > 100 µM |
| COC(=O)Nc1ccc(-c2cnc([C@@H]3C[C@H](N4CCN(S(C)(=O)=O)CC4)CN3C(=O)C3CCN(C(=N)N)CC3)[nH]2)cc1 [Example 98, methyl [4-(2-(2S,4S)-1-[(1-carbamimidoyl-4-piperidinyl)carbonyl]-4-[4-(methylsulfonyl)-1-piperazinyl]-2-pyrrolidinyl-1H-imidazol-5-yl)phenyl]carbamate trihydrochloride] | > 100 µM | 0.0023 µM | > 100 µM |
| C[C@H]1CN([C@H]2C[C@@H](C(=O)Nc3ccccc3)N(C(=O)/C=C/c3cc(Cl)ccc3-n3cnnn3)C2)CCN1S(N)(=O)=O [Example 57, (2S,4S)-1-{(2E)-3-[5-chloro-2-(1H-tetrazol-1-yl)phenyl]-2-propenoyl}-4-[(3S)-3-methyl-4-sulfamoyl-1-piperazinyl]-N-phenyl-2-pyrrolidinecarboxamide trifluoroacetate] | > 100 µM | 0.027 µM | > 100 µM |
| COC(=O)Nc1ccc(-c2[nH]c([C@@H]3C[C@H](C4CCN(S(C)(=O)=O)CC4)CN3C(=O)N3CCN(C(=N)N)CC3)nc2Cl)cc1 [Example 88, methyl [4-(2-{(2S,4R)-1-[(4-carbamimidoyl-1-piperazinyl)carbonyl]-4-[1-(methylsulfonyl)-4-piperidinyl]-2-pyrrolidinyl}-4-chloro-1H-imidazol-5-yl)phenyl]carbamate bis(trifluoroacetate)] | 57 µM | 0.0054 µM | > 100 µM |
| COC(=O)Nc1ccc(-c2[nH]c([C@@H]3C[C@H](C4CCN(S(C)(=O)=O)CC4)CN3C(=O)[C@H]3CC[C@H]([C@H](C)N)CC3)nc2Cl)cc1 [Example 86, methyl [4-(2-{(2S,4R)-1-({trans-4-[(1S)-1-aminoethyl]cyclohexyl}carbonyl)-4-[1-(methylsulfonyl)-4-piperidinyl]-2-pyrrolidinyl}-4-chloro-1H-imidazol-5-yl)phenyl]carbamate bis(trifluoroacetate)] | > 100 µM | 0.0099 µM | > 100 µM |
| NC[C@H]1CC[C@H](C(=O)N2C[C@@H](N3CCN(S(=O)(=O)C4CC4)CC3)C[C@H]2C(=O)Nc2ccc(C(=O)O)cc2)CC1 [Example 55, 4-[({(2S,4S)-1-{[trans-4-(aminomethyl)cyclohexyl]carbonyl}-4-[4-(cyclopropylsulfonyl)-1-piperazinyl]-2-pyrrolidinyl}carbonyl)amino]benzoic acid bis(trifluoroacetate)] | > 100 µM | 0.014 µM | > 100 µM |
| O=C(Nc1ccccc1)[C@@H]1C[C@H](N2CCN(S(=O)(=O)c3ccccc3)CC2)CN1C(=O)/C=C/c1cc(Cl)ccc1-n1cnnn1 [Example 39, (2S,4S)-1-{(2E)-3-[5-chloro-2-(1H-tetrazol-1-yl)phenyl]-2-propenoyl}-N-phenyl-4-[4-(phenylsulfonyl)-1-piperazinyl]-2-pyrrolidinecarboxamide] | > 100 µM | 0.078 µM | > 100 µM |
| O=C(O)c1ccc(NC(=O)[C@@H]2C[C@H](N3CCOCC3)CN2C(=O)/C=C/c2cc(Cl)ccc2-n2cnnn2)cc1 [Example 37, 4-({[(2S,4S)-1-{(2E)-3-[5-chloro-2-(1H-tetrazol-1-yl)phenyl]-2-propenoyl}-4-(4-morpholinyl)-2-pyrrolidinyl]carbonyl}amino)benzoic acid trifluoroacetate] | > 100 µM | 0.013 µM | > 100 µM |
| COC(=O)Nc1ccc(-c2[nH]c([C@@H]3C[C@H](N4CCN(S(C)(=O)=O)CC4)CN3C(=O)C3CCN(C(=N)N)CC3)nc2Cl)cc1 [Example 99, methyl [4-(2-{(2S,4S)-1-(1-carbamimidoyl-4-piperidinyl)carbonyl]-4-[4-(methylsulfonyl)-1-piperazinyl-2-pyrrolidinyl}-4-chloro-1H-imidazol-5-yl)phenyl]carbamate trihydrochloride] | 84 µM | 0.0012 µM | > 100 µM |
| COC(=O)Nc1ccc(-c2[nH]c([C@@H]3C[C@H](C4CCN(S(C)(=O)=O)CC4)CN3C(=O)/C=C/c3cc(Cl)ccc3-n3cnnn3)nc2Cl)cc1 [Example 94, methyl [4-(4-chloro-2-{(2S,4R)-1-{(2E)-3-[5-chloro-2-(1H-tetraol-1-yl)phenyl]-2-propenoyl}-4-[1-(methylsulfonyl)-4-piperidinyl]-2-pyrrolidinyl}-1H-imidazol-5-yl)phenyl]carbamate] | > 33 µM | 0.0054 µM | > 33 µM |
